Assay: Saturation level of T in saline (T powder slurry)
Type: physicochemical
Description: The T powder was produced as a 2.5 mg/mL slurry in buffer to reach the near saturation point of T in the buffer. Samples of the T powder slurry were removed from only the top layer of the slurry fluid to avoid aspirating T particles in the slurry that may have precipitated at to the bottom. T pellets were collected directly from the vials in which they were stored. The 83 mg hydrogels containing 30% T were collected from Dulbecco's PBS buffer, rinsed, and dried. Each of the collected samples was then placed in a separate container of incubation media (saline in this instance) for the release studies.
Samples of the respective incubation media for the T powder, pelleted T, and hydrogel encapsulated T were collected at 4, 24, and 48 hours, with 2-3 replicates from each experimental group at each collection time. All collected samples were then diluted before assaying for released T in the incubation media. Initially, the samples collected at 4 hours were diluted 400-fold, while the samples collected at 24 and 48 hours were diluted 1600-fold. […] As a result, dilution testing was performed at dilutions of 1200, 1600, 1800, 2200, 2400, and 3000-fold. […]

With `C[C@]12CC[C@H]3[C@@H](CCC4=CC(=O)CC[C@@]43C)[C@@H]1CC[C@@H]2O` [T powder, Testosterone] the “approximate saturation level of T in saline” value was “about 1.5 mg/L”.

Source: patent US12708605B2, “Method of administering a hormone encapsulated by a hydrogel with a dual chamber syringe” (VITALTE LIFESCIENCES INC., priority 2024, dated 2026)
